The record followed here is patent publication US20230340012A1, “NATURAL AND SYNTHETIC COMPOUNDS FOR TREATING CANCER AND OTHER DISEASES” (PACIFIC ARROW LIMITED, priority 2009, published 2023).

For this data set, the system named is cancer cells. Nature of the data set: MTT cytotoxic assay of esterification products (Cytotoxicity activity). It is filed as cell-based, human. The gist of the method:
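Cytotoxicity was read by MTT (Carmichael method, modified), with cells seeded 24 h ahead of treatment. Sixteen human cancer lines spanning bone, lung, bladder, ovary, colon, pancreas, prostate, skin, mouth, kidney, breast, liver, brain, leukemia and cervix were used. Test samples were acyl chloride esterification products of triterpenes, as mixtures or HPLC-purified compounds.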
In general terms: Tetrazolium dyes change colour on reduction, which living cells bring about.

Where [1] appears, read: MTT cytotoxic assay, isolated esterification products of E4A.
The mark [2] stands for this setting: esterification products isolated with HPLC, graded strong / moderate / weak.
[3] abbreviates: E4A esterified with Cinnamoyl chloride (Cin = Cinnamoyl), compounds isolated with HPLC.
The mark [4] stands for this setting: E4A esterified with Acetyl chloride (Acy = Acetyl), compounds isolated with HPLC.
Setting [5] is: E4A esterified with 2-propenoyl chloride (Ppe = Propenoyl), compounds isolated with HPLC.
Setting [6] is: E4A esterified with Propionyl chloride (Ppi = Propionyl), compounds isolated with HPLC.
[7] abbreviates: E4A esterified with benzoyl chloride (Ben = benzoyl), compounds isolated with HPLC.
Setting [8] is: esterification products of core compound E4A with (2E)-2-pentenoyl chloride (2pe = 2-pentenoyl).
Setting [9] is: esterification products of core compound E4A with Butyryl chloride (But = Butyryl).
[10] abbreviates: esterification products of core compound E4A with Decanoyl chloride (Dec = Decanoyl).
[11] abbreviates: esterification products of core compound E4A with Isobutyryl chloride (Iso = Isobutyryl).
Setting [12] is: esterification products of core compound E4A with Myristoyl chloride (Myr = Myristoyl).
Where [13] appears, read: esterification products of core compound E4A with Octanoyl chloride (Oct = Octanoyl).
Where [14] appears, read: E4A esterified with Crotonoyl chloride (Cro = Crotonoyl), compounds isolated with HPLC.

For `C=CCCC(=O)OCC1(C)C(OC(=O)CCC=C)CCC2(C)C1CCC1(C)C2CC=C2C3CC(C)(C)C(OC(=O)CCC=C)C(O)C3(COC(=O)CCC=C)C(O)CC21C` (centres unmarked) [Compound C11], the Cytotoxicity activity entry under setting [1] is reported as “weak”.

Take `CC=C(C)C(=O)OCC1(C)C(OC(=O)C(C)=CC)CCC2(C)C1CCC1(C)C2CC=C2C3CC(C)(C)C(O)C(O)C3(CO)C(O)CC21C` (centres unmarked) [Compound A31]: the Cytotoxicity activity entry under setting [1] was “moderate”.

Consider `CCC(CC)C(=O)OCC1(C)C(O)CCC2(C)C1CCC1(C)C2CC=C2C3CC(C)(C)C(OC(=O)C(CC)CC)C(O)C3(CO)C(O)CC21C` (centres unmarked) [Compound E29], for which the Cytotoxicity activity entry under setting [1] is “moderate”.

For the molecule `CC=C(C)C(=O)OCC1(C)C(O)CCC2(C)C1CCC1(C)C2CC=C2C3CC(C)(C)C(O)C(OC(=O)CCCCC)C3(CO)C(O)CC21C` (centres unmarked) [Tig—Hex—6], the Cytotoxicity activity result under setting [2] is given as “moderate”.

Turning to `CC1(C)CC2C3=CCC4C5(C)CCC(O)C(C)(CO)C5CCC4(C)C3(C)CC(O)C2(COC(=O)C=Cc2ccccc2)C(OC(=O)C=Cc2ccccc2)C1O` (centres unmarked) [Compound J26], the Cytotoxicity activity result under setting [3] is reported as “moderate”.

Take `CC1(C)CC2C3=CCC4C5(C)CCC(OC(=O)C=Cc6ccccc6)C(C)(COC(=O)C=Cc6ccccc6)C5CCC4(C)C3(C)CC(O)C2(COC(=O)C=Cc2ccccc2)C(OC(=O)C=Cc2ccccc2)C1O` (centres unmarked) [Compound J9]: the Cytotoxicity activity result under setting [3] is reported as “weak”.

With `CC=C(C)C(=O)OCC1(C)C(O)CCC2(C)C1CCC1(C)C2CC=C2C3CC(C)(C)C(O)C(OC(=O)C=C(C)C)C3(COC(=O)C(C)=CC)C(O)CC21C` (centres unmarked) [Tig—R—Sen—3], under setting [2], the Cytotoxicity activity entry is “moderate”.

For the molecule `C=CCCC(=O)OCC1(C)C(OC(=O)CCC=C)CCC2(C)C1CCC1(C)C2CC=C2C3CC(C)(C)C(O)C(OC(=O)CCC=C)C3(COC(=O)CCC=C)C(O)CC21C` (centres unmarked) [Compound C9], under setting [1], the Cytotoxicity activity entry is “weak”.

As to `CCC(CC)C(=O)OCC1(C)C(OC(=O)C(CC)CC)CCC2(C)C1CCC1(C)C2CC=C2C3CC(C)(C)C(O)C(OC(=O)C(CC)CC)C3(COC(=O)C(CC)CC)C(OC(=O)C(CC)CC)CC21C` (centres unmarked) [Compound E18], the Cytotoxicity activity result under setting [1] is recorded as “weak”.

With `CC1(C)CC2C3=CCC4C5(C)CCC(OC(=O)C=Cc6ccccc6)C(C)(COC(=O)C=Cc6ccccc6)C5CCC4(C)C3(C)CC(OC(=O)C=Cc3ccccc3)C2(COC(=O)C=Cc2ccccc2)C(O)C1O` (centres unmarked) [Compound J10], the Cytotoxicity activity entry under setting [3] was “weak”.

Regarding `CC(=O)OCC1(C)C(OC(C)=O)CCC2(C)C1CCC1(C)C2CC=C2C3CC(C)(C)C(O)C(OC(C)=O)C3(COC(C)=O)C(O)CC21C` (centres unmarked) [Compound H14], the Cytotoxicity activity result under setting [4] is recorded as “weak”.

For `CC1(C)CC2C3=CCC4C5(C)CCC(O)C(C)(COC(=O)C=Cc6ccccc6)C5CCC4(C)C3(C)CC(OC(=O)C=Cc3ccccc3)C2(CO)C(O)C1O` (centres unmarked) [Compound J32], the Cytotoxicity activity entry under setting [3] is given as “moderate”.

Take `CC=C(C)C(=O)OCC1(C)C(O)CCC2(C)C1CCC1(C)C2CC=C2C3CC(C)(C)C(O)C(OC(=O)C=C(C)C)C3(COC(=O)C=C(C)C)C(O)CC21C` (centres unmarked) [Tig—Sen—3]: the Cytotoxicity activity result (esterification products of E4A—Tig—N with senecioyl chloride) is “moderate”.

Regarding `CC1(C)CC2C3=CCC4C5(C)CCC(O)C(C)(COC(=O)c6ccccc6)C5CCC4(C)C3(C)CC(OC(=O)c3ccccc3)C2(COC(=O)c2ccccc2)C(O)C1OC(=O)c1ccccc1` (centres unmarked) [Compound K13], the Cytotoxicity activity entry by setting is: under setting [5], “weak”; under setting [6], “weak”; under setting [7], “weak”; under setting [8], “weak”; under setting [9], “weak”; under setting [10], “weak”. Besides, the Cytotoxicity activity result under setting [11] was “weak”, the Cytotoxicity activity entry under setting [12] is “weak” and the Cytotoxicity activity result under setting [13] is reported as “weak”.

As to `CC=C(C)C(=O)OCC1(C)C(O)CCC2(C)C1CCC1(C)C2CC=C2C3CC(C)(C)C(OC(=O)CCCCC)C(O)C3(COC(=O)C(C)=CC)C(O)CC21C` (centres unmarked) [Tig—R—Hex—2], under setting [2], the Cytotoxicity activity entry is reported as “moderate”.

On to `CC=C(C)C(=O)OCC1(C)C(OC(=O)C(C)=CC)CCC2(C)C1CCC1(C)C2CC=C2C3CC(C)(C)C(O)C(OC(=O)C(C)=CC)C3(COC(=O)C(C)=CC)C(O)CC21C` (centres unmarked) [Tig—R—Ang—6], for which the Cytotoxicity activity entry under setting [2] was “weak”.

For `CC=C(C)C(=O)OCC1(C)C(O)CCC2(C)C1CCC1(C)C2CC=C2C3CC(C)(C)C(OC(C)=O)C(O)C3(COC(C)=O)C(O)CC21C` (centres unmarked) [Tig—Acy—2], the Cytotoxicity activity result under setting [2] is given as “moderate”.

As to `CC=C(C)C(=O)OCC1(C)C(O)CCC2(C)C1CCC1(C)C2CC=C2C3CC(C)(C)C(OC(=O)C(C)=CC)C(O)C3(CO)C(O)CC21C` (centres unmarked) [Compound A29], the Cytotoxicity activity result under setting [1] is listed as “moderate”.

Take `CC=C(C)C(=O)OCC1(C)C(OC(=O)CCCCC)CCC2(C)C1CCC1(C)C2CC=C2C3CC(C)(C)C(OC(=O)CCCCC)C(O)C3(COC(=O)C(C)=CC)C(O)CC21C` (centres unmarked) [Tig—R—Hex—5]: under setting [2], the Cytotoxicity activity entry was “weak”.

As for `CC1(C)CC2C3=CCC4C5(C)CCC(OC(=O)C=Cc6ccccc6)C(C)(COC(=O)C=Cc6ccccc6)C5CCC4(C)C3(C)CC(O)C2(COC(=O)C=Cc2ccccc2)C(OC(=O)C=Cc2ccccc2)C1OC(=O)C=Cc1ccccc1` (centres unmarked) [Compound J15], the Cytotoxicity activity entry under setting [3] is reported as “weak”.

As for `CC=CC(=O)OCC1(C)C(O)CCC2(C)C1CCC1(C)C2CC=C2C3CC(C)(C)C(O)C(OC(=O)C=CC)C3(COC(=O)C=CC)C(OC(=O)C=CC)CC21C` (centres unmarked) [Compound I12], under setting [14], the Cytotoxicity activity entry was “weak”.

As to `C=CCCC(=O)OCC12C(O)CC3(C)C(=CCC4C5(C)CCC(OC(=O)CCC=C)C(C)(COC(=O)C(C)=CC)C5CCC43C)C1CC(C)(C)C(O)C2O` (centres unmarked) [Tig—Pen—4], under setting [2], the Cytotoxicity activity entry is recorded as “moderate”.

Take `CC(=O)OCC1(C)C(O)CCC2(C)C1CCC1(C)C2CC=C2C3CC(C)(C)C(OC(C)=O)C(O)C3(COC(C)=O)C(O)CC21C` (centres unmarked) [Compound H4]: the Cytotoxicity activity entry under setting [4] is on record as “moderate”.

With `CC1(C)CC2C3=CCC4C5(C)CCC(O)C(C)(CO)C5CCC4(C)C3(C)CC(O)C2(COC(=O)C=Cc2ccccc2)C(O)C1OC(=O)C=Cc1ccccc1` (centres unmarked) [Compound J25], the Cytotoxicity activity entry under setting [3] was “moderate”.

For `CC=CC(=O)OC1C(O)C(C)(C)CC2C3=CCC4C5(C)CCC(O)C(C)(COC(=O)C(C)=CC)C5CCC4(C)C3(C)CC(O)C21COC(=O)C(C)=CC` (centres unmarked) [Tig—R—Cro—3], under setting [2], the Cytotoxicity activity entry is “moderate”.

Consider `CC=C(C)C(=O)OCC12C(O)CC3(C)C(=CCC4C5(C)CCC(O)C(C)(CO)C5CCC43C)C1CC(C)(C)C(O)C2O` (centres unmarked) [Compound A2], for which, under setting [1], the Cytotoxicity activity result was “moderate”.

On to `C=CCCC(=O)OCC12C(O)CC3(C)C(=CCC4C5(C)CCC(O)C(C)(COC(=O)C(C)=CC)C5CCC43C)C1CC(C)(C)C(O)C2OC(=O)CCC=C` (centres unmarked) [Tig—Pen—3], for which, under setting [2], the Cytotoxicity activity entry was “moderate”.

As to `CC1(C)CC2C3=CCC4C5(C)CCC(O)C(C)(COC(=O)C=Cc6ccccc6)C5CCC4(C)C3(C)CC(O)C2(CO)C(O)C1O` (centres unmarked) [Compound J1], the Cytotoxicity activity result under setting [3] was “moderate”.

For the molecule `CC=C(C)C(=O)OCC1(C)C(O)CCC2(C)C1CCC1(C)C2CC=C2C3CC(C)(C)C(OC(=O)C=Cc4ccccc4)C(OC(=O)C=Cc4ccccc4)C3(COC(=O)C(C)=CC)C(O)CC21C` (centres unmarked) [Tig—R—Cin—1], the Cytotoxicity activity entry under setting [2] is on record as “weak”.

For the molecule `CC=CC(=O)OCC1(C)C(OC(=O)C=CC)CCC2(C)C1CCC1(C)C2CC=C2C3CC(C)(C)C(O)C(O)C3(COC(=O)C=CC)C(O)CC21C` (centres unmarked) [Compound I6], the Cytotoxicity activity entry under setting [14] is listed as “moderate”.

Consider `CC=C(C)C(=O)OC1C(OC(=O)C(C)=CC)C2(CO)C(OC(=O)C(C)=CC)CC3(C)C(=CCC4C5(C)CCC(O)C(C)(CO)C5CCC43C)C2CC1(C)C` (centres unmarked) [Compound A22], for which the Cytotoxicity activity result under setting [1] was “moderate”.

With `CC1(C)CC2C3=CCC4C5(C)CCC(OC(=O)C=Cc6ccccc6)C(C)(CO)C5CCC4(C)C3(C)CC(O)C2(CO)C(OC(=O)C=Cc2ccccc2)C1OC(=O)C=Cc1ccccc1` (centres unmarked) [Compound J23], the Cytotoxicity activity entry under setting [3] is listed as “moderate”.

As for `CC1(C)CC2C3=CCC4C5(C)CCC(O)C(C)(CO)C5CCC4(C)C3(C)CC(O)C2(COC(=O)c2ccccc2)C(O)C1OC(=O)c1ccccc1` (centres unmarked) [Compound K25], the Cytotoxicity activity result is “moderate” under setting [5]; “moderate” under setting [6]; “moderate” under setting [7]; “moderate” under setting [8]; “moderate” under setting [9]; “moderate” under setting [10]. Also, the Cytotoxicity activity result under setting [11] is “moderate”, the Cytotoxicity activity result under setting [12] is “moderate” and the Cytotoxicity activity result under setting [13] is on record as “moderate”.

Take `CC=C(C)C(=O)OCC1(C)C(OC(=O)C(C)=CC)CCC2(C)C1CCC1(C)C2CC=C2C3CC(C)(C)C(OC(=O)C(C)=CC)C(OC(=O)C(C)=CC)C3(COC(=O)C(C)=CC)C(O)CC21C` (centres unmarked) [Compound A15]: under setting [1], the Cytotoxicity activity entry was “weak”.

With `CC(=O)OCC12C(O)CC3(C)C(=CCC4C5(C)CCC(OC(C)=O)C(C)(CO)C5CCC43C)C1CC(C)(C)C(O)C2O` (centres unmarked) [Compound H27], the Cytotoxicity activity result under setting [4] is recorded as “moderate”.

For the molecule `CC=C(C)C(=O)OCC1(C)C(O)CCC2(C)C1CCC1(C)C2CC=C2C3CC(C)(C)C(OC(=O)C=Cc4ccccc4)C(O)C3(COC(=O)C(C)=CC)C(O)CC21C` (centres unmarked) [Tig—R—Cin—2], the Cytotoxicity activity result under setting [2] is “moderate”.

Consider `CC=C(C)C(=O)OCC1(C)C(OC(=O)C=Cc2ccccc2)CCC2(C)C1CCC1(C)C2CC=C2C3CC(C)(C)C(O)C(O)C3(COC(=O)C=Cc3ccccc3)C(O)CC21C` (centres unmarked) [Tig—Cin—4], for which, under setting [2], the Cytotoxicity activity result is given as “moderate”.
